Data as given in US20260262643A1, “HERBICIDAL BENZOXAZINES” (FMC CORPORATION, priority 2022, published 2026).

Experiments:
barnyardgrass [1] = experiment: Test C preemergence; type: in vivo, Echinochloa crusgalli; settings: for Barnyardgrass plant response rating: preemergence; for Plant response rating, Barnyardgrass: Preemergence
Procedure, shortened: (§1)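 Soil-applied (pre) and foliar (post, 1–2 leaf, 2–10 cm) sprays; surfactant-containing non-phytotoxic solvent vehicle; loam/sand substrate. Readout: visual % control at 10 d, greenhouse, versus untreated.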

blackgrass [2] = experiment: Test C preemergence; type: in vivo, Alopecurus myosuroides; settings: for Plant response rating, Blackgrass: Preemergence; for Blackgrass plant response rating: preemergence
Procedure, shortened: as §1

corn [3] = experiment: Test C preemergence; type: in vivo, Zea mays; settings: for Plant response rating, Corn: Preemergence; for Corn plant response rating: preemergence
Procedure, shortened: as §1

green foxtail [4] = experiment: Test C preemergence; type: in vivo, Setaria viridis; settings: for Plant response rating, Foxtail, Green: Preemergence; for Foxtail, Green plant response rating: preemergence
Procedure, shortened: as §1

kochia [5] = experiment: Test C preemergence; type: in vivo, Bassia scoparia; settings: for Plant response rating, Kochia: Preemergence; for Kochia plant response rating: preemergence
Procedure, shortened: as §1

oat, wild [6] = experiment: Test C preemergence; type: in vivo, Avena fatua; settings: for Plant response rating, Oat, Wild: Preemergence; for Oat, Wild plant response rating: preemergence
Procedure, shortened: as §1

pigweed, palmer [7] = experiment: Test C preemergence; type: in vivo, Amaranthus palmeri; settings: for Plant response rating, Pigweed, Palmer: Preemergence; for Pigweed, Palmer plant response rating: preemergence
Procedure, shortened: as §1

ragweed [8] = experiment: Test C preemergence; type: in vivo, Ambrosia artemisiifolia; settings: for Plant response rating, Ragweed: Preemergence; for Ragweed plant response rating: preemergence
Procedure, shortened: as §1

ryegrass, Italian [9] = experiment: Test C preemergence; type: in vivo, Lolium multiflorum; settings: for Plant response rating, Ryegrass, Italian: Preemergence; for Ryegrass, Italian plant response rating: preemergence
Procedure, shortened: as §1

soybean [10] = experiment: Test C preemergence; type: in vivo, Glycine max; settings: for Plant response rating, Soybean: Preemergence; for Soybean plant response rating: preemergence
Procedure, shortened: as §1

wheat [11] = experiment: Test C preemergence; type: in vivo, Triticum aestivum; settings: for Plant response rating, Wheat: Preemergence; for Wheat plant response rating: preemergence
Procedure, shortened: as §1

barnyardgrass [12] = experiment: Test C postemergence; type: in vivo, Echinochloa crusgalli; settings: 10 days
Procedure, shortened: as §1

blackgrass [13] = experiment: Test C postemergence; type: in vivo, Alopecurus myosuroides; settings: 10 days
Procedure, shortened: as §1

corn [14] = experiment: Test C postemergence; type: in vivo, Zea mays; settings: 10 days
Procedure, shortened: as §1

green foxtail [15] = experiment: Test C postemergence; type: in vivo, Setaria viridis; settings: 10 days
Procedure, shortened: as §1

kochia [16] = experiment: Test C postemergence; type: in vivo, Bassia scoparia; settings: 10 days
Procedure, shortened: as §1

oat, wild [17] = experiment: Test C postemergence; type: in vivo, Avena fatua; settings: 10 days
Procedure, shortened: as §1

pigweed, palmer [18] = experiment: Test C postemergence; type: in vivo, Amaranthus palmeri; settings: 10 days
Procedure, shortened: as §1

ragweed [19] = experiment: Test C postemergence; type: in vivo, Ambrosia artemisiifolia; settings: 10 days
Procedure, shortened: as §1

ryegrass, Italian [20] = experiment: Test C postemergence; type: in vivo, Lolium multiflorum; settings: 10 days
Procedure, shortened: as §1

soybean [21] = experiment: Test C postemergence; type: in vivo, Glycine max; settings: 10 days
Procedure, shortened: as §1

wheat [22] = experiment: Test C postemergence; type: in vivo, Triticum aestivum; settings: 10 days
Procedure, shortened: as §1

galium = experiment: Test C postemergence; type: in vivo, Galium aparine; settings: 10 days
Procedure, shortened: as §1

horseweed = experiment: Test C postemergence; type: in vivo, Erigeron canadensis; settings: 10 days
Procedure, shortened: as §1

barnyardgrass [23] = experiment: Test D flooded paddy test; type: in vivo, Echinochloa crus-galli; settings: 250 g ai/ha, applied to paddy water, visual rating after 13 to 14 days, scale 0 to 100 (0 no effect, 100 complete control)
Procedure, shortened: (§2)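 Plants grown to the 2-leaf stage; pots flooded to 3 cm above soil at treatment and held at that depth throughout. Test compounds applied directly to the paddy water. After 13 to 14 days in a greenhouse, response was rated visually versus controls on a 0 (no effect) to 100 (complete control) scale.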

ducksalad = experiment: Test D flooded paddy test; type: in vivo, Heteranthera limosa; settings: 250 g ai/ha, applied to paddy water, visual rating after 13 to 14 days, scale 0 to 100 (0 no effect, 100 complete control)
Procedure, shortened: as §2

rice = experiment: Test D flooded paddy test; type: in vivo, Oryza sativa; settings: 250 g ai/ha, applied to paddy water, visual rating after 13 to 14 days, scale 0 to 100 (0 no effect, 100 complete control)
Procedure, shortened: as §2

sedge, umbrella = experiment: Test D flooded paddy test; type: in vivo, Cyperus difformis; settings: 250 g ai/ha, applied to paddy water, visual rating after 13 to 14 days, scale 0 to 100 (0 no effect, 100 complete control)
Procedure, shortened: as §2

[24] = 500 g ai/ha, visual rating after 10 days, 0 to 100 scale (0 no effect, 100 complete control)
[25] = Test C, 125 g ai/ha, 0 to 100 scale (0 no effect, 100 complete control)
[26] = 125 g ai/ha, postemergence, 0 to 100 scale, 0 no effect, 100 complete control
[27] = Postemergence, 500 g ai/ha, visual 0 to 100 scale (0 no effect, 100 complete control)
[28] = 500 g ai/ha, 0 to 100 scale (0 no effect, 100 complete control)
[29] = 125 g ai/ha, 0 to 100 scale, 0 no effect, 100 complete control
[30] = 500 g ai/ha, postemergence, 0 to 100 scale (0 no effect, 100 complete control)
[31] = Postemergence, 125 g ai/ha, 0 to 100 scale (0 no effect, 100 complete control)

CC(C)c1ncn(-c2cc(OC(F)F)c(OC(F)F)c(C(=O)N3C[C@H](C)Oc4c(Cl)cccc43)c2)n1 [Compound 150]
50: Plant response rating, Soybean (soybean [21]; [27])
20: Plant response rating, Ragweed (ragweed [8]; [24]) | Plant response rating, Kochia (kochia [16]; [27]) | Plant response rating, Soybean (soybean [21]; [26])
0: Barnyardgrass plant response rating (barnyardgrass [1]; 125 g ai/ha, 0 to 100 scale (0 no effect, 100 complete control)) | Plant response rating, Barnyardgrass (barnyardgrass [1]; [24]) | Plant response rating, Blackgrass (blackgrass [2]; [24]) | Blackgrass plant response rating (blackgrass [2]; [25]) | Plant response rating, Corn (corn [3]; [24]) | Corn plant response rating (corn [3]; [25]) | Plant response rating, Foxtail, Green (green foxtail [4]; [24]) | Foxtail, Green plant response rating (green foxtail [4]; [25]) | Plant response rating, Kochia (kochia [5]; [24]) | Kochia plant response rating (kochia [5]; [25]) | Plant response rating, Oat, Wild (oat, wild [6]; [24]) | Oat, Wild plant response rating (oat, wild [6]; [25]) | Plant response rating, Pigweed, Palmer (pigweed, palmer [7]; [24]) | Pigweed, Palmer plant response rating (pigweed, palmer [7]; [25]) | Ragweed plant response rating (ragweed [8]; [25]) | Plant response rating, Ryegrass, Italian (ryegrass, Italian [9]; [24]) | Ryegrass, Italian plant response rating (ryegrass, Italian [9]; [25]) | Plant response rating, Soybean (soybean [10]; [24]) | Soybean plant response rating (soybean [10]; [25]) | Plant response rating, Wheat (wheat [11]; [24]) | Wheat plant response rating (wheat [11]; [25]) | Plant response rating, Blackgrass (blackgrass [13]; [26]) | Plant response rating, Blackgrass (blackgrass [13]; [27]) | Plant response rating, Corn (corn [14]; [26]) | Plant response rating, Corn (corn [14]; [27]) | Plant response rating, Foxtail, Green (green foxtail [15]; [26]) | Plant response rating, Foxtail, Green (green foxtail [15]; [27]) | Plant response rating, Kochia (kochia [16]; [26]) | Plant response rating, Oat, Wild (oat, wild [17]; [26]) | Plant response rating, Oat, Wild (oat, wild [17]; [27]) | Plant response rating, Pigweed, Palmer (pigweed, palmer [18]; [26]) | Plant response rating, Ragweed (ragweed [19]; [26]) | Plant response rating, Ragweed (ragweed [19]; [27]) | Plant response rating, Ryegrass, Italian (ryegrass, Italian [20]; [26]) | Plant response rating, Ryegrass, Italian (ryegrass, Italian [20]; [27]) | Plant response rating, Wheat (wheat [22]; [26]) | Plant response rating, Wheat (wheat [22]; [27]) | Plant response rating, Galium (galium; [26]) | Plant response rating, Galium (galium; [27]) | Plant response rating, Horseweed (horseweed; [26]) | Plant response rating, Horseweed (horseweed; [27]) | Plant response rating, Barnyardgrass (Flood) (barnyardgrass [23]) | Plant response rating, Ducksalad (Flood) (ducksalad) | Plant response rating, Rice (Flood) (rice) | Plant response rating, Sedge, Umbrella (Flood) (sedge, umbrella)
10: Plant response rating, Barnyardgrass (barnyardgrass [12]; [26]) | Plant response rating, Barnyardgrass (barnyardgrass [12]; [27])
30: Plant response rating, Pigweed, Palmer (pigweed, palmer [18]; [27])

CCOCC1CN(C(=O)c2cc(-n3cnc(C(C)(C)C)n3)ccc2OC)c2cccc(Cl)c2O1 (centres unmarked) [Compound 379]
90: Ryegrass, Italian plant response rating (ryegrass, Italian [9]; [28]) | Soybean plant response rating (soybean [10]; [28]) | Plant response rating, Soybean (soybean [10]; [29]) | Plant response rating, Kochia (kochia [16]; [30]) | Plant response rating, Kochia (kochia [16]; [31]) | Plant response rating, Ragweed (ragweed [19]; [30])
10: Plant response rating, Oat, Wild (oat, wild [17]; [30]) | Plant response rating, Wheat (wheat [22]; [31])
65: Plant response rating, Sedge, Umbrella (Flood) (sedge, umbrella)
100: Barnyardgrass plant response rating (barnyardgrass [1]; [28]) | Foxtail, Green plant response rating (green foxtail [4]; [28]) | Kochia plant response rating (kochia [5]; [28]) | Pigweed, Palmer plant response rating (pigweed, palmer [7]; [28]) | Plant response rating, Pigweed, Palmer (pigweed, palmer [7]; [29]) | Plant response rating, Pigweed, Palmer (pigweed, palmer [18]; [30]) | Plant response rating, Soybean (soybean [21]; [30]) | Plant response rating, Soybean (soybean [21]; [31]) | Plant response rating, Galium (galium; [30])
50: Plant response rating, Corn (corn [14]; [30]) | Plant response rating, Ryegrass, Italian (ryegrass, Italian [20]; [30])
55: Plant response rating, Ducksalad (Flood) (ducksalad)
60: Plant response rating, Barnyardgrass (barnyardgrass [1]; [29]) | Plant response rating, Barnyardgrass (barnyardgrass [12]; [30])
40: Wheat plant response rating (wheat [11]; [28])
80: Plant response rating, Foxtail, Green (green foxtail [4]; [29]) | Plant response rating, Kochia (kochia [5]; [29]) | Oat, Wild plant response rating (oat, wild [6]; [28]) | Ragweed plant response rating (ragweed [8]; [28]) | Plant response rating, Pigweed, Palmer (pigweed, palmer [18]; [31])
0: Blackgrass plant response rating (blackgrass [2]; [28]) | Plant response rating, Blackgrass (blackgrass [2]; [29]) | Plant response rating, Ragweed (ragweed [8]; [29]) | Plant response rating, Oat, Wild (oat, wild [17]; [31]) | Plant response rating, Horseweed (horseweed; [31])
30: Corn plant response rating (corn [3]; [28]) | Plant response rating, Corn (corn [3]; [29]) | Plant response rating, Oat, Wild (oat, wild [6]; [29]) | Plant response rating, Barnyardgrass (barnyardgrass [12]; [31]) | Plant response rating, Blackgrass (blackgrass [13]; [30]) | Plant response rating, Blackgrass (blackgrass [13]; [31]) | Plant response rating, Corn (corn [14]; [31]) | Plant response rating, Ragweed (ragweed [19]; [31]) | Plant response rating, Ryegrass, Italian (ryegrass, Italian [20]; [31]) | Plant response rating, Horseweed (horseweed; [30])
15: Plant response rating, Rice (Flood) (rice)
35: Plant response rating, Barnyardgrass (Flood) (barnyardgrass [23])
20: Plant response rating, Wheat (wheat [11]; [29]) | Plant response rating, Foxtail, Green (green foxtail [15]; [30]) | Plant response rating, Foxtail, Green (green foxtail [15]; [31]) | Plant response rating, Wheat (wheat [22]; [30])
70: Plant response rating, Ryegrass, Italian (ryegrass, Italian [9]; [29]) | Plant response rating, Galium (galium; [31])
